The values below are quoted from earlier work in publication PMC5742115, “Pharmacophore Modeling and in Silico/in Vitro Screening for Human Cytochrome P450 11B1 and Cytochrome P450 11B2 Inhibitors” (Frontiers in Chemistry, 2017).

Like-named read-outs stand apart in the source and are kept apart here.

In one data set the test system is CYP11B1. Particulars: reported activity, supplementary Table 1, read-out: CYP11B1 IC50, cited from earlier work.
For the next data set, the system named is CYP11B2. Particulars: reported activity, supplementary Table 1, read-out: CYP11B2 IC50, cited from earlier work.

On to `C(=C1/CCCc2ccccc21)/c1ccncc1` [CHEMBL360026], for which the IC50 – broadly, the point on the concentration scale where inhibition reaches its midpoint – with CYP11B1 (ref Ulmschneider et al., 2005a) was 143 nM; with CYP11B2 (ref Ulmschneider et al., 2005a), 15 nM.
For `COc1ccc2c(c1)CCC/C2=C\c1cccnc1` [CHEMBL362441], the IC50 is 903 nM in the data set with CYP11B1 (ref Ulmschneider et al., 2005a) and 57 nM in the data set on CYP11B2 (ref Ulmschneider et al., 2005a).
For `C(=C1\CCc2ccccc21)/c1cccnc1` [CHEMBL363621], the IC50 in the data set with CYP11B1 (ref Ulmschneider et al., 2005b) was 87 nM; in the data set on CYP11B2 (ref Ulmschneider et al., 2005b) it was 92 nM.
For the molecule `Fc1ccc2c(c1)CC/C2=C/c1cccc2cnccc12` [CHEMBL363849], the IC50 in the data set with CYP11B1 (ref Ulmschneider et al., 2005b) was 26 nM; with CYP11B2 (ref Ulmschneider et al., 2005b) it was 65 nM.
Consider `C(=C1/CCc2ccccc21)/c1cccnc1` [CHEMBL364080], for which the IC50 in the data set on CYP11B1 (ref Ulmschneider et al., 2005a) was 888 nM; in the data set with CYP11B2 (ref Ulmschneider et al., 2005a) it was 11 nM.
On to `Fc1cccc2c1CC/C2=C\c1cccnc1` [CHEMBL366490], for which the IC50 is 774 nM in the data set with CYP11B1 (ref Ulmschneider et al., 2005a) and 21 nM in the data set on CYP11B2 (ref Ulmschneider et al., 2005a).
For `Brc1ccc2c(c1)CC/C2=C\c1ccncc1` [CHEMBL366773], the IC50 with CYP11B1 (ref Ulmschneider et al., 2005a) is 2640 nM; with CYP11B2 (ref Ulmschneider et al., 2005a), 24 nM.
Turning to `C(=C1\CCCc2ccccc21)/c1c[nH]cn1` [CHEMBL367719], the IC50 was 3.3 nM in the data set with CYP11B1 (ref Ulmschneider et al., 2005b) and 9.6 nM with CYP11B2 (ref Ulmschneider et al., 2005b).
`Clc1cccc2c1CC/C2=C/c1cccnc1` [CHEMBL369623]: the IC50 in the data set on CYP11B1 (ref Ulmschneider et al., 2005a) is 657 nM; in the data set on CYP11B2 (ref Ulmschneider et al., 2005a), 31 nM.
Take `Fc1ccc2c(c1)CC/C2=C\c1cccc2cnccc12` [CHEMBL370530]: the IC50 in the data set on CYP11B1 (ref Ulmschneider et al., 2005b) is 58 nM; in the data set on CYP11B2 (ref Ulmschneider et al., 2005b) it was 57 nM.
Take `COc1ccc2c(Cl)c(-c3cccnc3)ccc2c1Cl` [CHEMBL381014]: the IC50 in the data set with CYP11B1 (ref Voets et al., 2005) was 4900 nM; in the data set with CYP11B2 (ref Voets et al., 2005), 28 nM.
Take `Fc1ccc2c(c1)CC/C2=C/c1cccnc1` [CHEMBL383806]: the IC50 was 125 nM with CYP11B1 (ref Ulmschneider et al., 2005a) and 11 nM in the data set with CYP11B2 (ref Ulmschneider et al., 2005a).
On to `Clc1ccc2c(c1)CC/C2=C\c1cccnc1` [CHEMBL383807], for which the IC50 with CYP11B1 (ref Ulmschneider et al., 2005a) is 1470 nM; in the data set with CYP11B2 (ref Ulmschneider et al., 2005a) it was 26 nM.
Consider `c1ccc(-c2csc(Cn3ccnc3)c2)cc1` [CHEMBL403598], for which the IC50 was 19 nM in the data set on CYP11B1 (ref Hille et al., 2011b) and 277 nM in the data set with CYP11B2 (ref Hille et al., 2011b).
For `Fc1ccc2c(c1)CC/C2=C\c1ccncc1` [CHEMBL424960], the IC50 was 1100 nM with CYP11B1 (ref Ulmschneider et al., 2005a) and 15 nM in the data set on CYP11B2 (ref Ulmschneider et al., 2005a).
Turning to `CCOc1ccc2c(c1)CC/C2=C\c1cccnc1` [CHEMBL425323], the IC50 is 2370 nM in the data set on CYP11B1 (ref Ulmschneider et al., 2005a) and 79 nM with CYP11B2 (ref Ulmschneider et al., 2005a).
Turning to `COC(=O)c1ccc2cc(-c3cccnc3)ccc2c1` [CHEMBL438802], the IC50 in the data set on CYP11B1 (ref Voets et al., 2005) was 10500 nM; with CYP11B2 (ref Voets et al., 2005) it was 72 nM.
Take `CCOc1cncc(-c2ccc3cc(OC)ccc3c2)c1` [CHEMBL445259]: the IC50 with CYP11B1 (ref Heim et al., 2008) was 373 nM; with CYP11B2 (ref Heim et al., 2008), 5.1 nM.
For `CN1C(=O)CCc2cc(-c3cccnc3)ccc21` [CHEMBL446083], the IC50 was 742 nM with CYP11B1 (ref Lucas et al., 2008b) and 2.6 nM in the data set with CYP11B2 (ref Lucas et al., 2008b).
With `COc1cncc(-c2ccc3cc(OC)ccc3c2)c1` [CHEMBL447591], the IC50 was 238 nM with CYP11B1 (ref Heim et al., 2008) and 4.2 nM in the data set on CYP11B2 (ref Heim et al., 2008).
For the molecule `COc1ccc2cc(-c3cncc(CO)c3)ccc2c1` [CHEMBL448064], the 50% inhibitory concentration (IC50) with CYP11B1 (ref Heim et al., 2008) was 614 nM; with CYP11B2 (ref Heim et al., 2008) it was 9.1 nM.
Consider `COc1ccc2cc(-c3cnccc3CO)ccc2c1` [CHEMBL449894], for which the IC50 in the data set with CYP11B1 (ref Heim et al., 2008) is 1760 nM; with CYP11B2 (ref Heim et al., 2008), 22 nM.
Regarding `CN1C(=O)CCc2cc(-c3cncc4ccccc34)ccc21` [CHEMBL451505], the IC50 in the data set on CYP11B1 (ref Lucas et al., 2008b) was 6.9 nM; in the data set with CYP11B2 (ref Lucas et al., 2008b) it was 0.1 nM.
As to `COc1ccc2cc(-c3cnccc3N)ccc2c1` [CHEMBL453169], the IC50 is 1520 nM in the data set on CYP11B1 (ref Heim et al., 2008) and 13 nM with CYP11B2 (ref Heim et al., 2008).
As for `O=C1CCc2cc(-c3cncc4ccccc34)ccc2N1` [CHEMBL456390], the IC50 with CYP11B1 (ref Lucas et al., 2008b) was 33 nM; in the data set with CYP11B2 (ref Lucas et al., 2008b), 0.2 nM.
On to `CCN1C(=O)CCc2cc(-c3cccnc3)ccc21` [CHEMBL457425], for which the IC50 in the data set on CYP11B1 (ref Lucas et al., 2008b) is 5180 nM; in the data set with CYP11B2 (ref Lucas et al., 2008b), 22 nM.
Take `O=C1CCc2cc(-c3cccnc3)cc(Cl)c2N1` [CHEMBL457640]: the 50% inhibitory concentration (IC50) is 1670 nM in the data set with CYP11B1 (ref Lucas et al., 2008b) and 3.8 nM with CYP11B2 (ref Lucas et al., 2008b).
For the molecule `COc1cncc(-c2ccc3c(c2)CCC(=O)N3)c1` [CHEMBL457646], the IC50 in the data set on CYP11B1 (ref Lucas et al., 2008b) is 339 nM; in the data set with CYP11B2 (ref Lucas et al., 2008b), 2.7 nM.
Regarding `COc1cncc(-c2ccc3c(c2)CCC(=O)N3C)c1` [CHEMBL457856], the IC50 was 87 nM with CYP11B1 (ref Lucas et al., 2008b) and 0.2 nM with CYP11B2 (ref Lucas et al., 2008b).
Turning to `COC1CCc2cc(-c3cccnc3)ccc2C1` (stereo not drawn) [CHEMBL460178], the IC50 is 1140 nM in the data set with CYP11B1 (ref Lucas et al., 2008b) and 3.3 nM in the data set with CYP11B2 (ref Lucas et al., 2008b).
On to `c1cncc(-c2ccc3c(c2)CCCC3)c1` [CHEMBL461457], for which the half-inhibitory concentration (IC50) in the data set on CYP11B1 (ref Lucas et al., 2008b) was 1980 nM; with CYP11B2 (ref Lucas et al., 2008b), 29 nM.
As for `OC1CCc2cc(-c3cccnc3)ccc2C1` (stereo not drawn) [CHEMBL461458], the IC50 is 4920 nM in the data set on CYP11B1 (ref Lucas et al., 2008b) and 44 nM with CYP11B2 (ref Lucas et al., 2008b).
In the case of `N#CC1=Cc2ccc(-c3cccnc3)cc2CC1` [CHEMBL461884], the IC50 with CYP11B1 (ref Lucas et al., 2008b) is 290 nM; in the data set with CYP11B2 (ref Lucas et al., 2008b), 1.6 nM.
For the molecule `O=C1CCc2cc(-c3cccnc3)ccc2C1` [CHEMBL462093], the IC50 is 3960 nM with CYP11B1 (ref Lucas et al., 2008b) and 7.8 nM with CYP11B2 (ref Lucas et al., 2008b).
Regarding `c1ccc(Cn2cncc2-c2ccccc2)cc1` [CHEMBL463582], the IC50 in the data set with CYP11B1 (ref Roumen et al., 2010) is 4.8 nM; in the data set on CYP11B2 (ref Roumen et al., 2010) it was 11 nM.
Regarding `COc1cncc(-c2ccc3c(c2)CCC(=O)C3)c1` [CHEMBL499007], the IC50 is 191 nM in the data set with CYP11B1 (ref Lucas et al., 2008b) and 1.8 nM with CYP11B2 (ref Lucas et al., 2008b).
For `COc1ccc2c(c1)CC(C)C(c1cncc3ccccc13)=C2` (stereo not drawn) [CHEMBL499044], the IC50 was 64 nM in the data set on CYP11B1 (ref Heim et al., 2008) and 0.5 nM with CYP11B2 (ref Heim et al., 2008).
Turning to `COc1ccc2cc(-c3cccnc3)c(C)cc2c1` [CHEMBL499871], the half-maximal inhibitory concentration (IC50) in the data set on CYP11B1 (ref Heim et al., 2008) was 1050 nM; in the data set with CYP11B2 (ref Heim et al., 2008), 7 nM.
Take `COc1cncc(C2=Cc3ccc(OC)cc3CC2C)c1` (stereo not drawn) [CHEMBL500145]: the IC50 with CYP11B1 (ref Heim et al., 2008) was 100 nM; with CYP11B2 (ref Heim et al., 2008), 1.2 nM.
Regarding `COC(=O)c1cncc(-c2ccc3cc(OC)ccc3c2)c1` [CHEMBL500146], the IC50 in the data set with CYP11B1 (ref Heim et al., 2008) is 15 nM; with CYP11B2 (ref Heim et al., 2008) it was 0.8 nM.
As to `COc1ccc2cc(-c3cncc(C(C)OC)c3)ccc2c1` (stereo not drawn) [CHEMBL500392], the IC50 in the data set with CYP11B1 (ref Heim et al., 2008) was 10 nM; in the data set with CYP11B2 (ref Heim et al., 2008), 0.2 nM.
For `COc1ccc2cc(-c3cncc(-c4ccccc4)c3)ccc2c1` [CHEMBL500393], the IC50 in the data set on CYP11B1 (ref Heim et al., 2008) is 151 nM; in the data set with CYP11B2 (ref Heim et al., 2008) it was 4.8 nM.
Consider `COc1ccc2cc(-c3cncc4ccccc34)ccc2c1` [CHEMBL500394], for which the IC50 in the data set with CYP11B1 (ref Heim et al., 2008) is 67 nM; in the data set on CYP11B2 (ref Heim et al., 2008), 0.6 nM.
On to `COc1ccc2cc(-c3cncc(C(C)O)c3)ccc2c1` (stereo not drawn) [CHEMBL500395], for which the IC50 in the data set with CYP11B1 (ref Heim et al., 2008) was 99 nM; in the data set with CYP11B2 (ref Heim et al., 2008), 0.5 nM.
`COCc1cncc(-c2ccc3cc(OC)ccc3c2)c1` [CHEMBL500421]: the IC50 is 31 nM in the data set with CYP11B1 (ref Heim et al., 2008) and 0.2 nM in the data set on CYP11B2 (ref Heim et al., 2008).
Turning to `COc1ccc2cc(-c3cncc(O)c3)ccc2c1` [CHEMBL500636], the IC50 in the data set on CYP11B1 (ref Heim et al., 2008) was 8920 nM; in the data set with CYP11B2 (ref Heim et al., 2008), 94 nM.
Regarding `N#Cc1ccc2c(c1)CCC(c1cccnc1)=C2` [CHEMBL500663], the IC50 with CYP11B1 (ref Heim et al., 2008) is 461 nM; in the data set with CYP11B2 (ref Heim et al., 2008), 4.5 nM.
As for `COc1ccc2cc(-c3cnccc3C)ccc2c1` [CHEMBL500664], the IC50 in the data set on CYP11B1 (ref Heim et al., 2008) is 114 nM; with CYP11B2 (ref Heim et al., 2008), 0.8 nM.
Consider `Cc1ccncc1-c1ccc2cc(C#N)ccc2c1` [CHEMBL500665], for which the IC50 in the data set with CYP11B1 (ref Heim et al., 2008) is 52 nM; in the data set with CYP11B2 (ref Heim et al., 2008), 0.6 nM.
On to `COCc1ccncc1-c1ccc2cc(OC)ccc2c1` [CHEMBL500676], for which the IC50 with CYP11B1 (ref Heim et al., 2008) is 435 nM; with CYP11B2 (ref Heim et al., 2008) it was 2.2 nM.
As to `COc1ccc2c(c1)CC(C)C(c1cccnc1)=C2` (stereo not drawn) [CHEMBL502266], the IC50 was 248 nM with CYP11B1 (ref Heim et al., 2008) and 3.3 nM in the data set with CYP11B2 (ref Heim et al., 2008).
